Measurements reported in ChEMBL document CHEMBL3217643, “Discovery of hydroxamate bioisosteres as KAT II inhibitors with improved oral bioavailability and pharmacokinetics” (Medchemcomm, 2013).

What was measured:
[1] = Oral bioavailability in rat; format: ADME, organism-based; conditions: in vivo
[2] = Oral bioavailability in dog; format: ADME, organism-based, Canis lupus familiaris; conditions: in vivo
[3] = Drug uptake in CD-1 mouse cerebral spinal fluid; format: ADME, Cerebrospinal fluid; conditions: in vivo
[4] = Half life in human liver microsomes; format: ADME
[5] = target: T1, Kynurenine/alpha-aminoadipate aminotransferase, mitochondrial (Homo sapiens, UniProt Q8N5Z0); assay: Ratio of Kinact to Ki for KAT2 (unknown origin)
Target sequence in this assay (Q8N5Z0 30-425 limits assumed): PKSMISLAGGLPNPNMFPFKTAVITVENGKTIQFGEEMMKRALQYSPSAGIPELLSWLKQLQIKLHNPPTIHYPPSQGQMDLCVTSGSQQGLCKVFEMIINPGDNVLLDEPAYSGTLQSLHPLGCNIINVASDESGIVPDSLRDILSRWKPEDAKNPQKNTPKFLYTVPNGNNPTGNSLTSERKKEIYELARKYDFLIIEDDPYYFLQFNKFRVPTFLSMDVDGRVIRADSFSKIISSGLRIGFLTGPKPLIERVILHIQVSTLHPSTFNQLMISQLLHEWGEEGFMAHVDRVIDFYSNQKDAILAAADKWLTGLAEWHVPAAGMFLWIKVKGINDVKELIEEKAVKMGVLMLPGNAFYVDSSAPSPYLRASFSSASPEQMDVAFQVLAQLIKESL

[6] = Half life in human hepatocytes; format: ADME, cell-based, Hepatocyte
Brain = assay: Drug uptake in CD-1 mouse brain; format: ADME, tissue-based; conditions: in vivo
[7] = target: T1, Kynurenine/alpha-aminoadipate aminotransferase, mitochondrial; assay: Inhibition of KAT2 (unknown origin)
[8] = Blood clearance in iv dosed rat; format: ADME, organism-based
P-gp = assay: Efflux ratio in MDCK cells overexpressing Pgp; format: ADME, cell-based, Canis lupus familiaris; conditions: dog, MDCK-MDR1
[9] = Blood clearance in iv dosed dog; format: ADME, organism-based, Canis lupus familiaris
[10] = Drug degradation assessed as metabolite formation by LC-MS/MS analysis; format: physicochemical

bioavailability [1]	bioavailability [2]	Drug uptake [3]	half-life [4]	Ratio [5]	half-life [6]	Drug uptake (Brain)	IC50 [7]	Ki [7]	Kinact [7]	clearance [8]	efflux ratio (P-gp)	clearance [9]	Retention_time [10]	SMILES
10.8%	18.5%													N[C@H]1Cc2ccccc2N(O)C1=O
40%	100%	Active	> 1.73 h	5060 M⁻¹ s⁻¹	1.9 h	Active	65 nM	5.1 nM	0.0155 min⁻¹	78.4 mL/min/kg	1.51	4.5 mL/min/kg	31.8 min	COc1cccc(Oc2ccc3c(c2)CC(N)c2n[nH]c(=O)n2-3)c1 (stereo not given)
				2920 M⁻¹ s⁻¹			201 nM	81.5 nM	0.0141 min⁻¹					COc1cccc(Oc2ccc3c(c2)CC(N)c2nncn2-3)c1 (stereo not given)
